target: T1, human full length HSD11 β 1 (Homo sapiens, UniProt P28845); test: In Vitro HSD11β1 Inhibition Assay; assay type: cell-based; settings: CHO cells transiently expressing human HSD11β1; 200 nM cortisone+500 uM NADPH overnight; cortisone to cortisol by LC/MS-MS; read-out: 11βHSD1 (IC50)
T1 construct: transient expression of human full length HSD11 β 1 expression vector; host or cells: CHO cells (transient transfection)
In short: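 CHO cells transiently transfected with human full-length HSD11β1 were re-seeded after 24 h and, 24 h later, incubated overnight with 200 nM cortisone plus 500 uM NADPH and inhibitor. Cortisone-to-cortisol conversion was measured by LC/MS-MS. IC50 from an 8-point log concentration–inhibition curve.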

T1 sequence (P28845 whole entry): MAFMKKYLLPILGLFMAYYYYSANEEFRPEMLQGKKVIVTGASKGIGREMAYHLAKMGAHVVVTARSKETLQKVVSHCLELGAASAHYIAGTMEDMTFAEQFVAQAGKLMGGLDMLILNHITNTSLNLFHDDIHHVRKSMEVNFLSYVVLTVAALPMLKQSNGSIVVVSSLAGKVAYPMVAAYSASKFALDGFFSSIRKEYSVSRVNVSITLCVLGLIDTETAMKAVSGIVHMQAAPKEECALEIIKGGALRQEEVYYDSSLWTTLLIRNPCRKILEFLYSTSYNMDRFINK

SMILES | IC50 [nM]
Cc1cccc2c1c(CCC(=O)N1CC(C)(C)OC3CCCCC31)cn2C (centres unmarked) [Compound 70, 3-(1,4-dimethyl-1H-indol-3-yl)-1-(2,2-dimethyloctahydro-4H-1,4-benzoxazin-4-yl)propan-1-one] | > 250
O=C(CSc1nc2ccccc2s1)N1CCCC2CCCCC21 (centres unmarked) [Compound 73, 2-(1,3-benzothiazol-2-ylsulfanyl)-1-(octahydroquinolin-1(2H)-yl)ethanone] | > 250
CC(CC(=O)N1CCC(CC(=O)O)C2CCCCC21)c1c[nH]c2cccc(C3CC3)c12 (centres unmarked) [Compound 189, (1-[3-(4-cyclopropyl-1H-indol-3-yl)butanoyl]decahydroquinolin-4-yl)acetic acid] | > 250
CC(CC(=O)N1CCC(C(=O)O)C2CCCCC21)c1c[nH]c2cccc(C3CC3)c12 (centres unmarked) [Compound 194, 1-[3-(4-cyclopropyl-1H-indol-3-yl)butanoyl]decahydroquinoline-4-carboxylic acid] | > 250
CC(CC(=O)N1CCCC2C(C(=O)O)CCCC21)c1c[nH]c2cccc(C#N)c12 (centres unmarked) [Compound 197, 1-[3-(4-cyano-1H-indol-3-yl)butanoyl]decahydroquinoline-5-carboxylic acid] | > 250
CC(CC(=O)N1CCCC2CCCCC21)c1c[nH]c2cccc(N3CCC(C(=O)O)CC3)c12 (centres unmarked) [Compound 202, 1-{3-[4-(octahydroquinolin-1(2H)-yl)-4-oxobutan-2-yl]-1H-indol-4-yl}piperidine-4-carboxylic acid] | > 250
Cc1ccc2[nH]cc(C(C)CC(=O)N3CCCC4C(C(=O)O)CCCC43)c2c1Cl (centres unmarked) [Compound 203, 1-[3-(4-chloro-5-methyl-1H-indol-3-yl)butanoyl]decahydroquinoline-5-carboxylic acid] | > 250
CC(CC(=O)N1CCCC2C(C(=O)O)CCCC21)c1c[nH]c2nccc(C3CC3)c12 (centres unmarked) [Compound 205, 1-[3-(4-cyclopropyl-1H-pyrrolo[2,3-b]pyridin-3-yl)butanoyl]decahydroquinoline-5-carboxylic acid] | > 250
Cc1cccc2c1c(C(C)CC(=O)N1CCCC3C(C(=O)O)CCCC31)cn2C (centres unmarked) [Compound 207, 1-[3-(1,4-dimethyl-1H-indol-3-yl)butanoyl]decahydroquinoline-5-carboxylic acid] | > 250
CC(CC(=O)N1CCC(C(=O)O)C2CCCCC21)c1c[nH]c2cccc(-c3ccco3)c12 (centres unmarked) [Compound 227, 1-{3-[4-(furan-2-yl)-1H-indol-3-yl]butanoyl}decahydroquinoline-4-carboxylic acid] | > 250
CC(CC(=O)N1CCCC2CC(C(=O)O)CCC21)c1c[nH]c2cccc(Cl)c12 (centres unmarked) [Compound 228, 1-[3-(4-chloro-1H-indol-3-yl)butanoyl]decahydroquinoline-6-carboxylic acid] | > 250
CC(CC(=O)N1C(C)CCC2C(C(=O)O)CCCC21)c1c[nH]c2cccc(C3CC3)c12 (centres unmarked) [Compound 230, 1-[3-(4-cyclopropyl-1H-indol-3-yl)butanoyl]-2-methyldecahydroquinolin-5-carboxylic acid] | 150 to 200
CC(CC(=O)N1C(C)CCC2C(C(=O)O)CCCC21)c1c[nH]c2cccc(-c3ccco3)c12 (centres unmarked) [Compound 231, 1-{3-[4-(furan-2-yl)-1H-indol-3-yl]butanoyl}-2-methyldecahydroquinoline-5-carboxylic acid] | 150 to 200
CC(CC(=O)N1C(C)CCC2C(C(=O)O)CCCC21)c1c[nH]c2cccc(-c3cccs3)c12 (centres unmarked) [Compound 232, 2-methyl-1-{3-[4-(thiophen-2-yl)-1H-indol-3-yl]butanoyl}decahydroquinoline-5-carboxylic acid] | 150 to 200
CC(CC(=O)N1C(C)CCC2C(C(=O)O)CCCC21)c1c[nH]c2cccc(-c3cccs3)c12 (centres unmarked) [Compound 233, 2-methyl-1-{3-[4-(thiophen-2-yl)-1H-indol-3-yl]butanoyl}decahydroquinoline-5-carboxylic acid] | > 250
CC(CC(=O)N1C(C)CCC2C(C(=O)O)CCCC21)c1c[nH]c2cccc(Cl)c12 (centres unmarked) [Compound 234, 1-[3-(4-chloro-1H-indol-3-yl)butanoyl]-2-methyldecahydroquinoline-5-carboxylic acid] | > 250

Other lines, results leading:

IC50 [nM] | SMILES
150 to 200 | Cn1cc(C(C)(C)CC(=O)N2CCOC3CCCCC32)c2ccccc21 (centres unmarked) [Compound 71, 3-methyl-3-(1-methyl-1H-indol-3-yl)-1-(octahydro-4H-1,4-benzoxazin-4-yl)butan-1-one]
< 100 | O=C(CCc1c[nH]c2cccc(F)c12)N1CCOC2CCCCC21 (centres unmarked) [Compound 72, 3-(4-fluoro-1H-indol-3-yl)-1-(octahydro-4H-1,4-benzoxazin-4-yl)propan-1-one]
< 100 | CC(CC(=O)N1CCCC2C(C(=O)O)CCCC21)c1c[nH]c2cccc(C3CC3)c12 (centres unmarked) [Compound 190, 1-[3-(4-cyclopropyl-1H-Indol-3-yl)butanoyl]decahydroquinoline-5-carboxylic acid]
100 to 150 | CC(CC(=O)N1CCCC2CC(C(=O)O)CCC21)c1c[nH]c2cccc(C3CC3)c12 (centres unmarked) [Compound 191, 1-[3-(4-cyclopropyl-1H-Indol-3-yl)butanoyl]decahydroquinoline-6-carboxylic acid]
< 100 | CC(CC(=O)N1CCCC2C(C(=O)O)CCCC21)c1c[nH]c2cccc(-c3cccs3)c12 (centres unmarked) [Compound 192, 1-{3-[4-(thiophen-2-yl)-1H-indol-3-yl]butanoyl}decahydroquinoline-5-carboxylic acid]
100 to 150 | CC(CC(=O)N1CCCC2C(C(=O)O)CCCC21)c1c[nH]c2cccc(Cl)c12 (centres unmarked) [Compound 193, 1-[3-(4-chloro-1H-indol-3-yl)butanoyl]decahydroquinoline-5-carboxylic acid]
< 100 | CC(C)Oc1cccc2[nH]cc(C(C)CC(=O)N3CCCC4C(C(=O)O)CCCC43)c12 (centres unmarked) [Compound 201, 1-{3-[4-(propan-2-yloxy)-1H-indol-3-yl]butanoyl}decahydroquinoline-5-carboxylic acid]
< 100 | CC(CC(=O)N1CCCC2C(C(=O)O)CCCC21)c1cn(C)c2cccc(C3CC3)c12 (centres unmarked) [Compound 204, 1-[3-(4-cyclopropyl-1-methyl-1H-indol-3-yl)butanoyl]decahydroquinoline-5-carboxylic acid]
< 100 | O=C(O)C1CCCC2C1CCCN2C(=O)CC(c1cccs1)c1c[nH]c2cccc(Cl)c12 (centres unmarked) [Compound 206, 1-[3-(4-chloro-1H-indol-3-yl)-3-(thiophen-2-yl)propanoyl]decahydroquinoline-5-carboxylic acid]
100 to 150 | CC(C)Oc1cccc2c1c(C(C)CC(=O)N1CCCC3C(C(=O)O)CCCC31)cn2C (centres unmarked) [Compound 208, 1-{3-[1-methyl-4-(propan-2-yloxy)-1H-indol-3-yl]butanoyl}decahydroquinoline-5-carboxylic acid]
150 to 200 | CC(CC(=O)N1CCCC2C(C(=O)O)CCCC21)c1cn(C)c2cccc(Cl)c12 (centres unmarked) [Compound 209, 1-[3-(4-chloro-1-methyl-1H-indol-3-yl)butanoyl]decahydroquinoline-5-carboxylic acid]
100 to 150 | CCn1cc(C(C)CC(=O)N2CCCC3C(C(=O)O)CCCC32)c2c(C3CC3)cccc21 (centres unmarked) [Compound 210, 1-[3-(4-cyclopropyl-1-ethyl-1H-indol-3-yl)butanoyl]decahydroquinoline-5-carboxylic acid]
< 100 | CC(C)c1cccc2[nH]cc(C(C)CC(=O)N3CCCC4C(C(=O)O)CCCC43)c12 (centres unmarked) [Compound 211, 1-{3-[4-(propan-2-yl)-1H-indol-3-yl]butanoyl}decahydroquinoline-5-carboxylic acid]
< 100 | CC(CC(=O)N1CCCC2C(C(=O)O)CCCC21)c1c[nH]c2cccc(-c3ccco3)c12 (centres unmarked) [Compound 215, 1-{3-[4-(furan-2-yl)-1H-indol-3-yl]butanoyl}decahydroquinoline-5-carboxylic acid]
< 100 | CC(CC(=O)N1CCCC2C(C(=O)O)CCCC21)c1cn(C)c2cccc(-c3ccco3)c12 (centres unmarked) [Compound 216, 1-{3-[4-(furan-2-yl)-1-methyl-1H-indol-3-yl]butanoyl}decahydroquinoline-5-carboxylic acid]
100 to 150 | CC(CC(=O)N1CCCC2CC(C(=O)O)CCC21)c1c[nH]c2cccc(C3CC3)c12 (centres unmarked) [Compound 217, 1-[3-(4-cyclopropyl-1H-indol-3-yl)butanoyl]decahydroquinoline-6-carboxylic acid]
< 100 | CC(CC(=O)N1CCCC2C(C(=O)O)CCCC21)c1c[nH]c2ccc(F)c(C3CC3)c12 (centres unmarked) [Compound 220, 1-[3-(4-cyclopropyl-5-fluoro-1H-indol-3-yl)butanoyl]decahydroquinoline-5-carboxylic acid]
< 100 | CC(CC(=O)N1CCCC2C(C(=O)O)CCCC21)c1c[nH]c2cccc(-c3ccco3)c12 (centres unmarked) [Compound 221, 1-{3-[4-(furan-2-yl)-1H-indol-3-yl]butanoyl}decahydroquinoline-5-carboxylic acid]
100 to 150 | CC(CC(=O)N1CCCC2C(C(=O)O)CCCC21)c1c[nH]c2cccc(-c3ccco3)c12 (centres unmarked) [Compound 222, 1-{3-[4-(furan-2-yl)-1H-indol-3-yl]butanoyl}decahydroquinoline-5-carboxylic acid]
100 to 150 | CC(CC(=O)N1CCCC2CC(C(=O)O)CCC21)c1c[nH]c2cccc(-c3ccco3)c12 (centres unmarked) [Compound 229, 1-{3-[4-(furan-2-yl)-1H-indol-3-yl]butanoyl}decahydroquinoline-6-carboxylic acid]
< 100 | CC(CC(=O)N1CCC(=O)C2CCCCC21)c1c[nH]c2cccc(Cl)c12 (centres unmarked) [Compound 235, 1-[3-(4-chloro-1H-indol-3-yl)butanoyl]octahydroquinolin-4(1H)-one]
100 to 150 | Cc1ccc(-c2cccc3[nH]cc(C(C)CC(=O)N4CCCC5C(C(=O)O)CCCC54)c23)o1 (centres unmarked) [Compound 236, 1-{3-[4-(5-methylfuran-2-yl)-1H-indol-3-yl]butanoyl}decahydroquinoline-5-carboxylic acid]

From patent US9453014B2, “Cyclic amide derivatives as inhibitors of 11-β-hydroxysteroid dehydrogenase and uses thereof” (CONNEXIOS LIFE SCIENCES PVT. LTD., priority 2011, dated 2016)
